Activity calls are given as the source filed them.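 Rule for the calls: active = IC50 of 25 µM or lower, counted as toxic to worms; inactive = the rest.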
Tested on: C. elegans VP596, manual health composite score, 20-22 h
Assay: C. elegans worm health toxicity scoring, SAR follow-up, cytotoxicity control for SKN-1 inhibitor project, whole organism, strain VP596, composite health score (AID 652161)

| SMILES | IC50 |
| --- | --- |
| Fc1ccc(-c2csc(-c3ccncc3)n2)cc1 | 10.6 µM |
| O=C(Nc1nc2c(ccc3ccccc32)s1)c1ccco1 | 20.3 µM |
| c1ccc2sc(SCc3ccc(-c4nnco4)cc3)nc2c1 | 14.5 µM |
| c1ccc(SCc2cc(-c3ccccc3)no2)cc1 | 11.5 µM |
| CCOc1cc(CNCCSc2nnnn2C)cc(Br)c1OCc1ccc(F)cc1 | 16 µM |
| O=C(Nc1nc(-c2ccc(Cl)s2)cs1)c1cccs1 | > 64 µM (inactive) |
| O=C(/C=C/Nc1ccc(F)cc1F)c1ccco1 | 24.1 µM |
| Brc1ccc(-c2nnc(-c3ccco3)o2)cc1 | 12.9 µM |
| CCOc1cc(CNC2CCCC2)cc(Cl)c1OCc1ccc(F)cc1 | > 64 µM (inactive) |
| Fc1ccc(COc2ccc(-c3nnco3)cc2)c(Cl)c1 | 8.11 µM |
| O=C(/C=C/c1ccc(Br)cc1)c1ccc(NC2=NCCCS2)cc1 | 20.1 µM |
| O=C(Nc1nccs1)c1ccc2ccccc2n1 | 16 µM |
| CC(C)c1ccc(C(=O)Nc2ccc(CN3CCOCC3)cc2)cc1 | 14.7 µM |
| Cc1oc(-c2ccc(-c3ccccc3)cc2)nc1CN(C)C1CCOC1 (stereo not drawn) | > 64 µM (inactive) |
| CSc1cccc(NC(=O)c2cccc3cccnc23)c1 | 47 µM (inactive) |
| c1ccc(Nc2nc(-c3cccs3)cs2)nc1 | 14.9 µM |
| Cc1cc(OCc2cccc(Cl)c2)c(C)cc1CN1CCOCC1 | 21 µM |
| O=C(/C=C/Nc1ccc(Br)cc1F)c1ccco1 | 14.8 µM |
| Clc1ccccc1-c1nc(-c2ccncc2)no1 | 15.3 µM |
| O=C(Nc1nc(-c2ccccc2)cs1)c1cccs1 | 15 µM |

| SMILES | IC50 |
| --- | --- |
| O=C(Nc1nc(-c2ccc(Cl)s2)cs1)c1ccccc1 | > 64 µM (inactive) |
| c1ccc(-c2csc(Nc3ccccn3)n2)cc1 | 6.56 µM |
| Cc1ccc(-c2noc(-c3cccs3)n2)cc1 | 10.6 µM |
| Brc1ccc(-c2nc(-c3ccccc3)no2)o1 | 11.9 µM |
| O=C(/C=C/Nc1ccc(F)c(Cl)c1)c1ccco1 | 18.8 µM |
| CCOC(=O)c1c(-c2ccc(-c3ccccc3)cc2)csc1NC(=O)CNCCN(C)C | > 64 µM (inactive) |
| Clc1ccc(Nc2nc(-c3cccs3)cs2)nc1 | 12.4 µM |
| c1ccc2oc(SCc3nc4ccccc4s3)nc2c1 | 13.9 µM |
| COc1cc(CNC2CCCC2)cc(Cl)c1OCc1ccc(F)cc1 | 46.9 µM (inactive) |
| Clc1ccccc1-c1nnc(-c2ccccc2Cl)o1 | 20.9 µM |
| Cc1ccc2nc(-c3ccc(NC(=S)NC4CC(C)(C)NC(C)(C)C4)cc3)sc2c1 | 62 µM (inactive) |
| CCc1ccc(-c2nc(-c3ccncc3)no2)cc1 | 10.6 µM |
| COc1cc(CNC(C)c2ccccc2)cc(Br)c1OCc1ccc(F)cc1 (stereo not drawn) | > 64 µM (inactive) |
| CCOc1ccc(-c2nc(-c3cccnc3)no2)cc1 | 8.88 µM |
| CCOc1cc(CNC2CCCC2)cc(Cl)c1OCc1ccccc1 | > 64 µM (inactive) |
| Cc1ccc(N=C/C(C(=O)C(F)(F)F)=C(\O)c2ccco2)cc1Cl | 27.2 µM (inactive) |
| Brc1ccc(CSc2nnc(-c3ccco3)o2)cc1 | 8.76 µM |
| O=C(Nc1ccc(CN2CCOCC2)cc1)c1cc2ccccc2o1 | 35.3 µM (inactive) |
| Clc1ccc(-c2nnc(-c3ccco3)o2)cc1 | 16.9 µM |
| c1ccc(-c2csc(-c3ccncc3)n2)cc1 | 23.9 µM |

| SMILES | IC50 |
| --- | --- |
| O=C(/C=C/Nc1ccc(F)c(F)c1)c1cccs1 | > 64 µM (inactive) |
| Cc1ccc(Nc2nc(-c3cccs3)cs2)nc1 | 27.3 µM (inactive) |
| O=C(/C=C/c1ccccc1)Nc1ccc(CN2CCOCC2)cc1 | > 64 µM (inactive) |
| O=C(Nc1nc(-c2ccc(Cl)s2)cs1)c1ccco1 | 16.1 µM |
| O=C(/C=C/Nc1ccc(F)cc1F)c1cccs1 | 21.4 µM |
| COc1cc(CNC(C)(C)CO)cc(Br)c1OCc1ccc(Cl)cc1 | 56.3 µM (inactive) |
| O=C(/C=C/Nc1ccccc1F)c1cccs1 | 35.2 µM (inactive) |
| CCOC(=O)Nc1nc(-c2ccc(F)cc2F)cs1 | 22.9 µM |
| Brc1ccc(CSc2nnc(-c3cccnc3)o2)cc1 | 25.2 µM (inactive) |
| Cc1nc2ccccc2cc1OCc1ccc(F)cc1 | 8.59 µM |
| Fc1ccc(COc2ccc(-c3nnco3)cc2)cc1 | 34.9 µM (inactive) |
| Clc1ccc(-c2nnc(-c3ccccc3)o2)c(Cl)c1 | 27.9 µM (inactive) |
| Fc1ccc(-c2csc(Nc3ccccn3)n2)cc1 | 7.02 µM |
| c1ccc(-c2nc(-c3ccncc3)no2)cc1 | > 64 µM (inactive) |
| Cc1ccccc1-c1noc(-c2cccs2)n1 | 7.83 µM |
| COc1ccc(C(=O)Nc2nc(-c3cccs3)cs2)cc1 | > 64 µM (inactive) |
| O=C(/C=C/c1cccs1)c1ccc(Br)cc1 | 11.6 µM |
| Cc1ccc(CSc2nnc(-c3ccco3)o2)cc1 | 19.1 µM |

— PubChem BioAssay AID652161 (Sanford-Burnham Center for Chemical Genomics, 2013)
